For assay [1], the system named is HCC1428. In words: Induction of mitochondrial dysfunction in human HCC1428 cells assessed as decrease in ATP production at 5 uM incubated for 6 hrs by real time analysis. Format: functional, cell-based.
In assay [2] the test system is HCC1500. The assay is described as follows: Induction of senescence in human HCC1500 cells assessed as […] in beta-galactosidase activity at 5 uM incubated for 24 hrs by immunostaining based imaging cytometric analysis. The assay is classed as functional, cell-based.
The test system of assay [3] is HCC1428. The assay is described as follows: Induction of AMPK phosphorylation in tamoxifen-induced senescent human HCC1428 cells incubated for 24 hrs by immunostaining based imaging cytometric analysis. Format: cell-based. The conditions noted are these: filed as activator.
The subject of assay [4] is HCC1500. The assay is described as follows: Induction of senescence in human HCC1500 cells assessed as increase in IL-8 level at 5 uM incubated for 24 hrs by immunostaining based imaging cytometric analysis. The assay is classed as functional, cell-based.
The subject of assay [5] is ZR-75-30. The assay is described as follows: Induction of apoptosis in tamoxifen-induced senescent human ZR-75-30 cells assessed as phosphatidylserine externalization at 1 to 5 uM incubated for 24 hrs by Annexin V-FITC staining based flow cytometric analysis. Format: functional, cell-based. Particulars: dose 1-5 µM. (Flow cytometry measures light scatter and fluorescence of single cells or particles in a stream.)

Assay [6] relates to HCC1428. The assay is described as follows: Induction of mitochondrial dysfunction in tamoxifen-induced senescent human HCC1428 cells assessed as decrease in ATP production at 5 uM incubated for 6 hrs by real-time analysis. Format: functional, cell-based.
Assay [7] deals with HCC1428. In words: Induction of alternative mitophagy in tamoxifen-induced senescent human HCC1428 cells assessed as increase in Rab9 level at 1 to 5 uM by immunostaining based imaging cytometric analysis. Format: functional, cell-based. Particulars: dose 1-5 µM.
The subject of assay [8] is Mitochondrial membrane. The assay is described as follows: Induction of mitochondrial membrane potential depolarization in human ZR-75-30 cells at 1 uM incubated for 24 hrs by 7-AAD staining based flow cytometric analysis. The assay is classed as cell membranes.
The test system of assay [9] is HCC1428. In words: Induction of mitochondrial dysfunction in tamoxifen-induced senescent human HCC1428 cells assessed as decrease in coupling efficiency respiration at 5 uM incubated for 6 hrs by real-time analysis. The assay is classed as functional, cell-based.
Assay [10] relates to HCC1428. The assay is described as follows: Induction of oxidative stress in tamoxifen-induced senescent human HCC1428 cells assessed as increase in cytosolic SOD1 level at 1 to 5 uM incubated for 24 hrs by MitoSOX red superoxide indicator based fluorescence analysis. Format: functional, cell-based. Particulars: dose 1-5 µM.
Assay [11] deals with HCC1428. The assay is described as follows: Effect on Bcl-rambo protein level in tamoxifen-induced senescent human HCC1428 cells at 1 to 5 uM incubated for 24 hrs by Western blot analysis. Format: functional, cell-based. Particulars: dose 1-5 µM.
Assay [12] concerns HCC1428. In words: Induction of ubiquitin-independent mitophagy in tamoxifen-induced senescent human HCC1428 cells assessed as increase in BNIP3 level at 1 to 5 uM by immunostaining based imaging cytometric analysis. The assay is classed as functional, cell-based. The conditions noted are these: dose 1-5 µM.
For assay [13], the system named is MCF-10F. The assay is described as follows: Induction of apoptosis in tamoxifen-induced senescent human MCF-10F cells assessed as assessed as phosphatidylserine externalization at 1 to 5 uM incubated for 24 hrs by Annexin V-FITC staining based flow cytometric analysis. Format: functional, cell-based. Particulars: dose 1-5 µM.
Assay [14] concerns HCC1500. The assay is described as follows: Induction of apoptosis in tamoxifen-induced senescent human HCC1500 cells assessed as decrease in HSP90 level incubated for 24 hrs by immunostaining based imaging cytometric analysis. The assay is classed as functional, cell-based.

Each structure is given as a SMILES string. Activity calls are given as the source filed them. No cut-off for these calls is given here.

With `CC(=O)Oc1ccc2c(=O)c(OCCCC[P+](c3ccccc3)(c3ccccc3)c3ccccc3)c(-c3ccc4c(c3)OC(c3ccccc3)(c3ccccc3)O4)oc2c1.[I-]`, the outcome in assay [1], in [2], in assay [3], in [5], in assay [6] and in [8] was Active. Besides, the outcome in [9], in [10] and in [14] was Active. Moreover, the outcome in assay [4], in assay [7], in assay [11] and in assay [12] was inactive. For the same compound, the Activity result in [13] is reported as “Active; Slight Effect Observed”.

For the origin of these results see ChEMBL document CHEMBL6120962, “New Mitochondria-Targeted Fisetin Derivative Compromises Mitophagy and Limits Survival of Drug-Induced Senescent Breast Cancer Cells” (J Med Chem, 2024).
